Assays:
[1] = system: MDA-MB-231, MDA-MB-468 and T47D cells over-expressing CTR1; assay: Cell mortality by PI exclusion assay (flow-cytometry) in copper-loaded vs control cells; assay type: cell-based, human; details: 48 h, CTR1 overexpression with/without 25 μM copper sulfate pretreatment 24 h
Experimental: (§1) Figure 4 Copper loading enhances cytotoxicity and ROS production in wedelolactone-treated breast cancer cells. MDA-MB-231, MDA-MB-468, and T47D cells were transiently transfected with pCNDA3.1-hCTR1-N-Myc (CTR1) or control pCDNA3.1 plasmids (cmv), pretreated with copper sulfate (Cu) for 24 h and subsequently treated with wedelolactone (w) or solvent (DMSO) in fresh media. (A) Cells were harvested and expression of exogenous CTR1 protein was confirmed by SDS-PAGE followed by immunoblotting with the Myc-Tag antibody; (B) Relative copper concentration in cell lysates was analyzed by SALD ICP MS. Data for copper are presented as an integrated ^63Cu/^60Ni signal ratio. (C) Cell mortality and (D) ROS production were evaluated after PI/DHE staining using flow-cytometry. The data represent the mean values from three independent experiments. Error bars indicate the SD. * indicates a significant (p < 0.05) difference.
3 × 10^5 cells were seeded in 6-well plates. After 24 h, transient transfection was performed, using 3 μL of Lipofectamine LTX reagent (Invitrogen) with a mixture containing 1.5 μg of pCNDA3.1-hCTR1-N-Myc or control pCDNA3.1 plasmid and 1.5 μL of PLUS reagent (Invitrogen). […] Cytotoxicity of wedelolactone was analyzed 48 h later by PI staining (1 μg/mL) using flow-cytometry as described previously.

[2] = system: CDKN1A, CDKN1B, TP53 and BAX genes in MDA-MB-231, MDA-MB-468 and T47D cells; assay: qPCR of CDKN1A, CDKN1B, TP53 and BAX transcripts; assay type: cell-based, human; details: 10 h, all three cell lines
Experimental: (§2) Figure 3 Multiubiquitinated and high turnover proteins accumulate in wedelolactone-treated breast cancer cells. MDA-MB-231, MDA-MB-468, and T47D cells were treated with various concentrations of wedelolactone or solvent for 10 h. (A) Protein extracts were subsequently analyzed by SDS-PAGE and immunoblotting using p21-, p27-, p53-, Bax-, and ubiquitin-specific antibodies. Treatment with MG132 served as a positive control; (B) Transcripts of CDKN1A, CDKN1B, TP53 and BAX genes were quantified using qPCR.
1 × 10^6 cells were seeded in 5 mL dishes. Next day, the cells were exposed to various concentrations of wedelolactone or DMSO for 10 h. Cells were harvested and total RNA was isolated using GenElute Mammalian Total RNA Miniprep kit (Sigma-Aldrich). For cDNA synthesis, 1 μg of total RNA was reverse-transcribed using the QuantiTect Reverse Transcription kit (Qiagen, Hilden, Germany) according to the manufacturer’s instructions in a final reaction volume of 20 μL. Expression of CDKN1A, CDKN1B, TP53 and BAX genes was determined using the target-specific primers (Table S1) and KAPA SYBR FAST qPCR MASTER MIX (KK460, Kapa Biosystems, Cambridge, MA, USA) on LightCycler 480 II (Roche, Basel, Switzerland). Expression of the reference GAPDH gene (probe 4326317E, ThermoFisher Scientific, Waltham, MA, USA) was used for data normalization.

[3] = system: breast cancer cell lines; parameters: method as in PMID 21315506, PMID 22733624; details: all three breast cancer cell lines, at concentrations corresponding to the IC50 values; cited from earlier work
[4] = system: p21, p27, p53, Bax and multiubiquitinated proteins in MDA-MB-231, MDA-MB-468 and T47D cells; assay: Immunoblotting of polyubiquitinated and short-lived proteins; assay type: cell-based, human; details: 10 h, all three cell lines
Experimental: as §2
5 × 10^5 cells were seeded in 6-well plates. The next day, the cells were exposed to various concentrations of wedelolactone, DMSO, or 10 μM MG132 for 10 h. Cells were harvested and lysed as described previously. Cell lysates were subjected to SDS–PAGE and immunoblotted. Sample loading was normalized according to protein concentration determined by DC protein assay (Biorad). Blots were probed with anti-ubiquitin (3933S; Cell Signaling Technology, Inc., Beverly, MA, USA), anti-p21, anti-p27 (sc-817 and sc-528; Santa Cruz Biotechnology Inc., Santa Cruz, CA, USA), anti-p53, anti-Bax or anti-Myc-Tag (9282, 5023 and 2276S; Cell Signaling Technology), anti-α-tubulin antibodies (T9026; Sigma-Aldrich), and secondary antibodies conjugated with peroxidase (Sigma-Aldrich). […]

[5] = molecular target: T1, proteasome in MDA-MB-468 cells (Homo sapiens, UniProt P28074); assay: Proteasome activity in cell extracts of treated MDA-MB-468 cells (fluorogenic substrates); assay type: cell-based; details: MDA-MB-468 cells treated 10 h, cell extract, Suc-LLVY-AMC; read-out: IC50, chymotrypsin-like activity of proteasome
T1 construct: endogenous in cells; host or cells: MDA-MB-231, MDA-MB-468 or T47D cells (treated 10 h, then lysed)
T1 sequence (P28074 60-263): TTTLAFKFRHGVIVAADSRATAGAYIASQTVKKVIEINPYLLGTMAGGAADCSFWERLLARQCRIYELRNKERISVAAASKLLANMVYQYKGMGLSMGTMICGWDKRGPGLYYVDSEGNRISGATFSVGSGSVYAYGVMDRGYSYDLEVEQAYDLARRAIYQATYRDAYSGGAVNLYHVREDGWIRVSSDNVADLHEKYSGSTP
T1 sequence (P28072 1-239 partner): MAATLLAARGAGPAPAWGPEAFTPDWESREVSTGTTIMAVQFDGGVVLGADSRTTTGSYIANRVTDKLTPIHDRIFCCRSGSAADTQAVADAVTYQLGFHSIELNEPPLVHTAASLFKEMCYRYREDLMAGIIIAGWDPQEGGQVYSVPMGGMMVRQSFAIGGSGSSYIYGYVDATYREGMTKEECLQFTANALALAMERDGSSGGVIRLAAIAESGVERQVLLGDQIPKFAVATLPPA
T1 sequence (Q99436 44-277 partner): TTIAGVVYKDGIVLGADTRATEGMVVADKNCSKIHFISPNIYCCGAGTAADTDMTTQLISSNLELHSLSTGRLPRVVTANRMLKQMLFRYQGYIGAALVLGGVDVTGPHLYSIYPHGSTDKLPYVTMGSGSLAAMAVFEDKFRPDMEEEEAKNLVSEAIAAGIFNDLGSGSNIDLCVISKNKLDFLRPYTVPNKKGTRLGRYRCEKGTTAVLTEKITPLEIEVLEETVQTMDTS
Experimental: (§3) Figure 1 Wedelolactone inhibits chymotrypsin-like, trypsin-like and caspase-like activities in breast cancer cells. MDA-MB-231 (A); MDA-MB-468 (B); and T47D (C) cells were treated with various concentrations of wedelolactone (w) for 10 h. Proteasome activities were evaluated in cell extracts using the activity-specific fluorogenic substrates (Suc-LLVY-AMC for testing chymotrypsin-like, Z-LLE-AMC for caspase-like, and Boc-LRR-AMC for trypsin-like activities). Treatment with MG132 served as a positive control. The data represent the mean values from three independent experiments. Error bars indicate the SD. * indicates a significant (p < 0.05) difference between wedelolactone-/MG132- and DMSO-treated cells.
(§4) MDA-MB-231, MDA-MB-468 and T47D (6 × 10^5) cells were seeded in 5 mL of culture media, exposed to various concentrations of wedelolactone, DMSO or 10 μM MG132 for 10 h. Cells were harvested, resuspended in cell lysis buffer (40 mM Tris, pH 7.2, 50 mM NaCl, 2 mM β-mercaptoethanol, 2 mM ATP, 5 mM MgCl, 10% Glycerol) and briefly sonicated using an Ultrasonic Processor UP100H (Hielscher, Ringwood, NJ, USA). Cell lysates were cleared by centrifugation and protein concentration in supernatant was determined using DC protein assay (Biorad, Hercules, CA, USA). […] Fluorescence was measured by TECAN infinite 200 plate reader (TECAN) for 1 h at 37 °C.

[6] = system: MDA-MB-231, MDA-MB-468 and T47D cells over-expressing CTR1; assay: ROS production by DHE staining (flow-cytometry) in copper-loaded vs control cells; assay type: cell-based, human; details: 10 h, CTR1 overexpression with/without 25 μM copper sulfate pretreatment 24 h
Experimental: as §1
3 × 10^5 cells were seeded in 6-well plates. After 24 h, transient transfection was performed as described in chapter 4.6. […] Reactive oxygen species (ROS) were measured using flow-cytometry (BD FACSVerse, BD Biosciences, Franklin Lakes, NJ, USA) at an excitation wavelength of 485 nm and an emission wavelength of 538 nm. Data were analyzed using BD FACSuite software (BD Biosciences).

[7] = molecular target: T2, 26S proteasome purified from MDA-MB-231 cells (Homo sapiens, UniProt P28074); assay: Proteasome activity in vitro, purified 26S proteasome; assay type: biochemical; details: Suc-LLVY-AMC, 1 h, read-out: IC50, chymotrypsin-like activity
T2 construct: Human 26S proteasome was purified from 8 × 10^6 of MDA-MB-231 cells; endogenous in cells; host or cells: MDA-MB-231 cells; purified with The Rapid 26S Proteasome Purification Kit (J4310, UBPBio)
Experimental: (§5) Figure 2 Wedelolactone inhibits chymotrypsin-like, trypsin-like, and caspase-like activities of purified 26S and 20S proteasome complexes in vitro. Wedelolactone (w) was added at various concentrations to reaction mixture containing either (A) 26S proteasome purified from MDA-MB-231 cells or (B) commercially available 20S proteasome, and fluorogenic substrate (Suc-LLVY-AMC for testing chymotrypsin-like, Z-LLE-AMC for caspase-like, and Boc-LRR-AMC for trypsin-like activities). Fluorescence was measured after 1 h incubation. MG132 was used as a positive control. The data represent the mean values from three independent experiments. Error bars indicate the SD. * indicates a significant (p < 0.05) difference in proteolytic activities between reaction mixtures containing wedelolactone/MG132 and DMSO.
Human 26S proteasome was purified from 8 × 10^6 of MDA-MB-231 cells using The Rapid 26S Proteasome Purification Kit (J4310, UBPBio) according to manufacturer’s instructions.
(§6) Chymotrypsin-like, trypsin-like and caspase-like proteasome activities were determined using Proteasome Activity Fluorometric Assay Kit II (J4120, UBPBio) according to manufacturer’s instructions. […] Fluorescence was measured by TECAN infinite 200 plate reader (TECAN, Mannedorf, Switzerland) for 1 h at 37 °C.

[8] = molecular target: T3, bovine 20S proteasome (Bos taurus, UniProt Q32KL2); assay: Proteasome activity in vitro, commercially available 20S proteasome; assay type: biochemical; details: Suc-LLVY-AMC, 1 h, read-out: IC50, chymotrypsin-like activity
T3 construct: purchased UBPBio A1400
Experimental: as §5, §6

[9] = molecular target: T4, proteasome in MDA-MB-231 cells (Homo sapiens, UniProt P28074); assay: Proteasome activity in cell extracts of treated MDA-MB-231 cells (fluorogenic substrates); assay type: cell-based; details: MDA-MB-231 cells treated 10 h, cell extract, Suc-LLVY-AMC; read-out: IC50, chymotrypsin-like activity of proteasome
T4 construct: endogenous in cells; host or cells: MDA-MB-231, MDA-MB-468 or T47D cells (treated 10 h, then lysed)
T4 sequence (P28074 60-263): T1 sequence (P28074 60-263)
T4 sequence (P28072 1-239 partner): T1 sequence (P28072 1-239 partner)
T4 sequence (Q99436 44-277 partner): T1 sequence (Q99436 44-277 partner)
Experimental: as §3, §4

[10] = molecular target: T5, proteasome in breast cancer cells (MDA-MB-231, MDA-MB-468, T47D) (Homo sapiens, UniProt P28072+P28074+Q99436); assay: Proteasome activity in breast cancer cell lines (statements on all three lines); assay type: cell-based; details: 10 h, cell extracts
T5 construct: endogenous in cells; host or cells: MDA-MB-231, MDA-MB-468 and T47D cells; in A12 transiently transfected with hCTR1-N-Myc, with or without copper loading, while the proteasome itself stays endogenous
T5 sequence (P28074 60-263): T1 sequence (P28074 60-263)
T5 sequence (P28072 1-239): T1 sequence (P28072 1-239 partner)
T5 sequence (Q99436 44-277): T1 sequence (Q99436 44-277 partner)
Experimental: as §3, §4

[11] = system: purified 26S and 20S proteasome complexes; assay: Proteasome activity in vitro (statements on purified 26S and 20S together); assay type: biochemical
Experimental: as §5, §6

[12] = molecular target: T6, proteasome in T47D cells (Homo sapiens, UniProt P28074); assay: Proteasome activity in cell extracts of treated T47D cells (fluorogenic substrates); assay type: cell-based; details: T47D cells treated 10 h, cell extract, Suc-LLVY-AMC; read-out: IC50, chymotrypsin-like activity of proteasome
T6 construct: endogenous in cells; host or cells: MDA-MB-231, MDA-MB-468 or T47D cells (treated 10 h, then lysed)
T6 sequence (P28074 60-263): T1 sequence (P28074 60-263)
T6 sequence (P28072 1-239 partner): T1 sequence (P28072 1-239 partner)
T6 sequence (Q99436 44-277 partner): T1 sequence (Q99436 44-277 partner)
Experimental: as §3, §4

For COc1cc(O)c2c(c1)oc(=O)c1c3cc(O)c(O)cc3oc21 [Wedelolactone], the “Cytotoxicity (cell mortality), effect of copper loading” value [1] is listed as “enhanced by copper loading”, the “Expression of CDKN1A, CDKN1B, TP53 and BAX genes” value [2] is listed as “did not affect expression of any of these genes” and the “Growth arrest and apoptosis” value [3] is listed as “induced growth arrest and apoptosis”. The “Level of p21, p27, p53, Bax and multiubiquitinated proteins” value [4] was “dose-dependent accumulation”, the IC50 [5] was 12.8 µM and the “ROS production, effect of copper loading” value [6] was “Copper-loaded cells produced more ROS”. The IC50 [7] was 9.97 µM, the IC50 [8] was 6.13 µM and the IC50 [9] was 27.8 µM. For the same molecule, the “Inhibition of chymotrypsin-like, trypsin-like and caspase-like activities of proteasome in cells” value [10] was “inhibited all three proteolytic activities of proteasome”, the “Inhibition of chymotrypsin-like, trypsin-like and caspase-like activities in vitro” value ([11]; purified 26S and 20S proteasome, 1 h) was “inhibited all three proteasomal activities in vitro in a dose-dependent manner” and the IC50 ([11]; summary over purified 26S and 20S proteasome, read-out: IC50 values for chymotrypsin-like inhibitory activity, in vitro) was < 10 µM. It also gave an IC50 [12] of 19.5 µM.
